Converted amounts (≈) assume the structure as drawn. Like-named read-outs stand apart in the source and are kept apart here.
Columns and labels:
Vero cells = assay: Cytotoxic activity on Vero cell line (Trypan blue, 24 h); type: cell-based; conditions: for IC50: Chlorocebus sabaeus, read-out: Vero Cells IC50 (IC95%); for IC50 / Vero Cells IC50 (IC95%): 24 h; for Selectivity Index (SI): ratio of IC50 in Vero cells to IC50 in G. duodenalis
Description: Cytotoxicity assay was performed on Vero cell line (ATCC CCL-81), as previously described. Briefly, Vero cells were cultivated in Roswell Park Memorial Institute (RPMI) medium supplemented with 10% fetal bovine serum (FBS). […] Each compound was dissolved in dimethyl sulfoxide (DMSO) and sterilized by filtration, and brought to final concentrations of 487, 243.5, 121.75 and 60.875 μg/mL with RPMI medium supplemented with 10% FBS. The cell suspension was adjusted to 1 × 10^4 cells/mL with RPMI medium supplemented with 10% FBS. Cell suspension (200 μL) was placed into a 96-well plate and incubated at 37 °C in a 5% CO2 atmosphere for 24 h. Each compound solution was added to each well containing the Vero cells and incubated for 24 h. The assay was carried out in triplicate. The number of cells were determined in a Neubauer chamber, while the percentage of viable cells was measured with the Trypan blue staining method.
The SI is the ratio of the IC50 concentration in host cells (Vero cells) to that in parasite (G. duodenalis).

[1] = tested on: G. duodenalis trophozoites; assay: Antigiardial activity, vial microassay (growth inhibition of trophozoites, 24 h); conditions: for inhibition at 300 µg/mL / IC50: Giardia duodenalis; for inhibition at 300 µg/mL: read-out: % Inhibition at 300 μg/mL; for % Inhibition at 300 μg/mL: G. duodenalis trophozoites; for G. duodenalis IC50 (IC95%): trophozoites, Probit, 95% confidence limits in brackets
Description: G. duodenalis strain 0989: IMSS was used. G. duodenalis was cultured in TYI-S-33 media supplemented with bile, as previously described [26]. G. duodenalis trophozoites were sub-cultured three times a week. Parasites used in the assays to determine drug susceptibility were harvested when cultures reached the middle of their logarithmic growth phase.
The concentration of all standard drugs was adjusted to 10 mg/mL. Metronidazole (used as a positive control), and pure compounds were dissolved in (DMSO). All stock solutions were stored at –20 °C until use. Before use in the assays, serial two-fold dilutions of the stock solutions were made in basal TYI medium (without serum). Fifty micro liters of each solution was added into 1 mL glass screw-capped cylindrical vials with a conical interior (Wheaton vial). All vials were filled with 950 μL of a freshly prepared parasite suspension in TYI-S-33 medium plus 10 % bovine serum. G. duodenalis was tested at density of 2 × 10^5 trophozoites/mL. All vials were incubated at 36 °C for 24 h. The vials were then chilled on iced water for 20 min, and the number of trophozoites per milliliter in each tube were counted using a hemocytometer (Neubauer cell-counter chamber) [29]. The percentage of growth inhibition with respect to untreated controls was then determined.
All experiments were performed in triplicate and in at least three independent bioassays (n = 9 cultures for each analyzed compound). The data were analyzed using GraphPad Prism software version 5.0 (USA). The half-maximum inhibitory concentration (IC50) of each drug was calculated by Probit analysis and 95% confidence limits were calculated.

[2] = tested on: Mycobacterium tuberculosis H37Rv; set-up: method as in PMID 22797778; conditions: sensitive strain H37Rv; cited from earlier work
[3] = source not stated; cited from earlier work
[4] = Vero cells, Probit, 95% confidence limits in brackets
[5] = read-out: G. duodenalis IC50 (IC95%), trophozoites, 24 h, Probit, 95% confidence limits in brackets

Oc1cccc(O)c1 [1,3-Benzenediol]
IC50 (Vero cells; [4]): 438 µg/mL (≈ 3980 µM) | Selectivity Index (SI) (Vero cells): 2.5 | inhibition at 300 µg/mL [1]: 56% | IC50 [1, 5]: 169 µg/mL (≈ 1530 µM)

C=C1[C@H]2CC[C@H](C2)C1(C)C [(1R,4S) (+)-Camphene]
Vero Cells IC50 (IC95%) (Vero cells; [4]): 494.3 (492.1–496.4) μg/mL | % Inhibition at 300 μg/mL [1]: 61% | G. duodenalis IC50 (IC95%) [1]: 181.1 (158.1–207.9) μg/mL

CC1(C)C(=O)[C@]2(C)CCC1C2 [(R) (−)-Fenchone]
% Inhibition at 300 μg/mL [1]: 6.5%

CC(C)=CCC[C@@H](C)CCO [(R)- (+)-β-Citronellol]
% Inhibition at 300 μg/mL [1]: 38%

CC1(C)C(=O)[C@@]2(C)CCC1C2 [(S) (+)-Fenchone]
% Inhibition at 300 μg/mL [1]: 16%

CC(C)[C@]12CC(=O)[C@H](C)[C@H]1C2 [(−)-α-Tujone]
% Inhibition at 300 μg/mL [1]: 14%

C=CCc1ccc(OC)cc1 [Estragole]
IC50 (Vero cells; Vero): 259 µg/mL (≈ 1750 µM) | Selectivity Index (SI) (Vero cells): 1.7 | inhibition at 300 µg/mL [1]: 49% | IC50 ([1]; read-out: G. duodenalis IC50 (IC95%)): 150 µg/mL (≈ 1010 µM)

CC(=O)OC1C2(C)CCC(C2)C1(C)C (stereo not shown) [Fenchylacetate]
% Inhibition at 300 μg/mL [1]: 38.5%

Cc1ncc([N+](=O)[O-])n1CCO [Metronidazole, reference compound]
IC50 (Vero cells; [4]): 83.5 µg/mL (≈ 488 µM) | inhibition at 300 µg/mL [1]: 100% | IC50 [1, 5]: 0.5 µg/mL (≈ 2.92 µM)

CCCCCCCC/C=C\CCCCCCCC(=O)O [Oleic acid]
inhibition at 300 µg/mL [1]: 24%

CC(C)(O)C(C)(C)O [Pinacol]
inhibition at 300 µg/mL [1]: 2%

CC1=CCC(=C(C)C)CC1 [Terpinolene]
inhibition at 300 µg/mL [1]: 30%

CCCCCC/C=C/C=C/C=O [Trans, trans-2,4-undecadienal, trans, trans-2,4-undecadienal]
IC50 (Vero cells; [4]): 589 µg/mL (≈ 3540 µM) | Selectivity Index (SI) (Vero cells): 8.1 | MIC [2]: 25 µg/mL (≈ 150 µM) | log P [3]: 3.8 | inhibition at 300 µg/mL [1]: 97% | IC50 [1, 5]: 72.1 µg/mL (≈ 434 µM) | G. duodenalis IC50 (IC95%) [1]: 72.1 (57.7–90.1) μg/mL

C/C=C/c1ccc(OC)cc1 [Trans-anethol]
% Inhibition at 300 μg/mL [1]: 17%

CCCCCCCCCCC=O [Undecanal]
inhibition at 300 µg/mL [1]: 25%

Cc1ccccc1C(C)C [o-Cymene]
% Inhibition at 300 μg/mL [1]: 30%

COc1ccc(C=O)cc1 [p-Anisaldehyde]
IC50 (Vero cells; [4]): 541 µg/mL (≈ 3970 µM) | Selectivity Index (SI) (Vero cells): 2.7 | inhibition at 300 µg/mL [1]: 67% | IC50 [1, 5]: 197 µg/mL (≈ 1450 µM)

CC1=CCC(C(C)C)=CC1 [γ-Terpinene]
inhibition at 300 µg/mL [1]: 24%

(R) (−)-Carvone
Vero Cells IC50 (IC95%) (Vero cells; [4]): 350.7 (348.4–353.0) μg/mL | % Inhibition at 300 μg/mL [1]: 66% | G. duodenalis IC50 (IC95%) [1]: 207.0 (162.2–267.3) μg/mL

Source: paper PMC9460038, “Antigiardial Activity of Foeniculum vulgare Hexane Extract and Some of Its Constituents” (Plants, 2022)
